Experimental data from the NIST ThermoML archive (doi:10.1021/je0604481).
± gives the expanded uncertainty stated by the source.

Assay: mn = molality of the nth substance listed, in mol/kg
Details: Liquid; for mass density: Constant-volume piezometry; for viscosity: Capillary tube (Ostwald / Ubbelohde) method

O=S(=O)([O-])[O-].[Mg+2] [magnesium sulfate] + O
Details | mass density [kg/m3] | viscosity [mPa·s]
288.57 K, 101 kPa, m1 = 2.224 | 1235.34 ± 0.75 | –
288.57 K, 101 kPa, m1 = 2.535 | 1263.36 ± 0.77 | –
291.15 K, 101 kPa, m1 = 0.084 | 1008.8 ± 0.61 | –
297.7 K, 101 kPa, m1 = 2.224 | 1231.87 ± 0.75 | –
297.7 K, 101 kPa, m1 = 2.535 | 1259.83 ± 0.77 | –
298.15 K, 100 kPa, m1 = 0.085 | – | 0.9407 ± 0.015
298.15 K, 100 kPa, m1 = 0.255 | – | 1.055 ± 0.017
298.15 K, 100 kPa, m1 = 0.437 | – | 1.184 ± 0.019
298.15 K, 100 kPa, m1 = 0.722 | – | 1.442 ± 0.023
298.15 K, 100 kPa, m1 = 0.923 | – | 1.651 ± 0.027
298.15 K, 100 kPa, m1 = 1.824 | – | 3.137 ± 0.05
298.15 K, 100 kPa, m1 = 2.291 | – | 4.414 ± 0.071
298.15 K, 100 kPa, m1 = 2.623 | – | 5.789 ± 0.092
298.15 K, 10000 kPa, m1 = 0.085 | – | 0.94 ± 0.015
298.15 K, 10000 kPa, m1 = 0.255 | – | 1.054 ± 0.017
298.15 K, 10000 kPa, m1 = 0.437 | – | 1.184 ± 0.019
298.15 K, 10000 kPa, m1 = 0.722 | – | 1.443 ± 0.023
298.15 K, 10000 kPa, m1 = 0.923 | – | 1.653 ± 0.027
298.15 K, 10000 kPa, m1 = 1.824 | – | 3.138 ± 0.05
298.15 K, 10000 kPa, m1 = 2.291 | – | 4.415 ± 0.071
298.15 K, 10000 kPa, m1 = 2.623 | – | 5.79 ± 0.092
298.15 K, 30000 kPa, m1 = 0.085 | – | 0.9415 ± 0.015
298.15 K, 30000 kPa, m1 = 0.255 | – | 1.056 ± 0.017
298.15 K, 30000 kPa, m1 = 0.437 | – | 1.185 ± 0.019
298.15 K, 30000 kPa, m1 = 0.722 | – | 1.445 ± 0.023
298.15 K, 30000 kPa, m1 = 0.923 | – | 1.655 ± 0.027
298.15 K, 30000 kPa, m1 = 1.824 | – | 3.14 ± 0.051
298.15 K, 30000 kPa, m1 = 2.291 | – | 4.417 ± 0.071
298.15 K, 30000 kPa, m1 = 2.623 | – | 5.792 ± 0.092
299.67 K, 2040 kPa, m1 = 2.224 | 1231.7 ± 0.8 | –
299.67 K, 7179 kPa, m1 = 2.224 | 1233.3 ± 0.8 | –
299.67 K, 16830 kPa, m1 = 2.224 | 1236.3 ± 0.8 | –
299.67 K, 22550 kPa, m1 = 2.224 | 1238.2 ± 0.8 | –
299.67 K, 29600 kPa, m1 = 2.224 | 1240.3 ± 0.9 | –
303.03 K, 101 kPa, m1 = 0.469 | 1050.08 ± 0.64 | –
303.15 K, 101 kPa, m1 = 0.841 | 1090.98 ± 0.67 | –
308.15 K, 100 kPa, m1 = 0.085 | – | 0.761 ± 0.012
308.15 K, 100 kPa, m1 = 0.255 | – | 0.8459 ± 0.014
308.15 K, 100 kPa, m1 = 0.437 | – | 0.9437 ± 0.015
308.15 K, 100 kPa, m1 = 0.722 | – | 1.151 ± 0.019
308.15 K, 100 kPa, m1 = 0.923 | – | 1.305 ± 0.021
308.15 K, 100 kPa, m1 = 1.824 | – | 2.415 ± 0.039
308.15 K, 100 kPa, m1 = 2.291 | – | 3.374 ± 0.054
308.15 K, 100 kPa, m1 = 2.623 | – | 4.352 ± 0.07
308.15 K, 10000 kPa, m1 = 0.085 | – | 0.7618 ± 0.012
308.15 K, 10000 kPa, m1 = 0.255 | – | 0.8466 ± 0.014
308.15 K, 10000 kPa, m1 = 0.437 | – | 0.946 ± 0.015
308.15 K, 10000 kPa, m1 = 0.722 | – | 1.153 ± 0.019
308.15 K, 10000 kPa, m1 = 0.923 | – | 1.305 ± 0.021
308.15 K, 10000 kPa, m1 = 1.824 | – | 2.418 ± 0.039
308.15 K, 10000 kPa, m1 = 2.291 | – | 3.376 ± 0.054
308.15 K, 10000 kPa, m1 = 2.623 | – | 4.355 ± 0.07
308.15 K, 30000 kPa, m1 = 0.085 | – | 0.7645 ± 0.013
308.15 K, 30000 kPa, m1 = 0.255 | – | 0.8495 ± 0.014
308.15 K, 30000 kPa, m1 = 0.437 | – | 0.9486 ± 0.015
308.15 K, 30000 kPa, m1 = 0.722 | – | 1.156 ± 0.019
308.15 K, 30000 kPa, m1 = 0.923 | – | 1.309 ± 0.021
308.15 K, 30000 kPa, m1 = 1.824 | – | 2.422 ± 0.039
308.15 K, 30000 kPa, m1 = 2.291 | – | 3.348 ± 0.054
308.15 K, 30000 kPa, m1 = 2.623 | – | 4.364 ± 0.07
308.6 K, 101 kPa, m1 = 0.261 | 1024.48 ± 0.63 | –
310.15 K, 101 kPa, m1 = 2.224 | 1226.56 ± 0.75 | –
310.15 K, 101 kPa, m1 = 2.535 | 1254.38 ± 0.77 | –
314.98 K, 2157 kPa, m1 = 2.535 | 1252.7 ± 0.8 | –
314.98 K, 8159 kPa, m1 = 2.535 | 1254.5 ± 0.8 | –
314.98 K, 15690 kPa, m1 = 2.535 | 1256.7 ± 0.8 | –
314.98 K, 25910 kPa, m1 = 2.535 | 1259.9 ± 0.9 | –
314.98 K, 29800 kPa, m1 = 2.535 | 1261 ± 0.9 | –
323.05 K, 2197 kPa, m1 = 2.224 | 1221.5 ± 0.8 | –
323.05 K, 10120 kPa, m1 = 2.224 | 1224 ± 0.8 | –
323.05 K, 19850 kPa, m1 = 2.224 | 1227 ± 0.8 | –
323.05 K, 26300 kPa, m1 = 2.224 | 1229.1 ± 0.8 | –
323.05 K, 30500 kPa, m1 = 2.224 | 1230.3 ± 0.9 | –
323.15 K, 100 kPa, m1 = 0.085 | – | 0.5785 ± 0.0095
323.15 K, 100 kPa, m1 = 0.255 | – | 0.6403 ± 0.01
323.15 K, 100 kPa, m1 = 0.437 | – | 0.7163 ± 0.012
323.15 K, 100 kPa, m1 = 0.722 | – | 0.8612 ± 0.014
323.15 K, 100 kPa, m1 = 0.923 | – | 0.9738 ± 0.016
323.15 K, 100 kPa, m1 = 1.824 | – | 1.744 ± 0.028
323.15 K, 100 kPa, m1 = 2.291 | – | 2.373 ± 0.038
323.15 K, 100 kPa, m1 = 2.623 | – | 2.997 ± 0.048
323.15 K, 101 kPa, m1 = 0.084 | 998.05 ± 0.61 | –
323.15 K, 101 kPa, m1 = 0.261 | 1018.3 ± 0.63 | –
323.15 K, 101 kPa, m1 = 0.469 | 1041.45 ± 0.64 | –
323.15 K, 101 kPa, m1 = 0.841 | 1082.67 ± 0.67 | –
323.15 K, 10000 kPa, m1 = 0.085 | – | 0.5809 ± 0.0095
323.15 K, 10000 kPa, m1 = 0.255 | – | 0.6431 ± 0.01
323.15 K, 10000 kPa, m1 = 0.437 | – | 0.7198 ± 0.012
323.15 K, 10000 kPa, m1 = 0.722 | – | 0.8651 ± 0.014
323.15 K, 10000 kPa, m1 = 0.923 | – | 0.9781 ± 0.016
323.15 K, 10000 kPa, m1 = 1.824 | – | 1.751 ± 0.028
323.15 K, 10000 kPa, m1 = 2.291 | – | 2.382 ± 0.038
323.15 K, 10000 kPa, m1 = 2.623 | – | 3.009 ± 0.048
323.15 K, 30000 kPa, m1 = 0.085 | – | 0.5856 ± 0.0096
323.15 K, 30000 kPa, m1 = 0.255 | – | 0.648 ± 0.011
323.15 K, 30000 kPa, m1 = 0.437 | – | 0.7256 ± 0.012
323.15 K, 30000 kPa, m1 = 0.722 | – | 0.8714 ± 0.014
323.15 K, 30000 kPa, m1 = 0.923 | – | 0.9853 ± 0.016
323.15 K, 30000 kPa, m1 = 1.824 | – | 1.764 ± 0.028
323.15 K, 30000 kPa, m1 = 2.291 | – | 2.4 ± 0.039
323.15 K, 30000 kPa, m1 = 2.623 | – | 3.031 ± 0.049
324.35 K, 101 kPa, m1 = 2.224 | 1219.96 ± 0.75 | –
324.35 K, 101 kPa, m1 = 2.535 | 1247.46 ± 0.77 | –
340.25 K, 101 kPa, m1 = 2.224 | 1211.6 ± 0.75 | –
340.25 K, 101 kPa, m1 = 2.535 | 1238.93 ± 0.77 | –
348.13 K, 1549 kPa, m1 = 2.535 | 1235.1 ± 0.8 | –
348.13 K, 9807 kPa, m1 = 2.535 | 1237.7 ± 0.8 | –
348.13 K, 14220 kPa, m1 = 2.535 | 1238.9 ± 0.8 | –
348.13 K, 23810 kPa, m1 = 2.535 | 1241.9 ± 0.9 | –
348.13 K, 30020 kPa, m1 = 2.535 | 1243.8 ± 0.9 | –
348.15 K, 100 kPa, m1 = 0.437 | – | 0.491 ± 0.0081
